Measurements reported in publication PMC4461796, “Synthesis, anticholinesterase and antioxidant potentials of ketoesters derivatives of succinimides: a possible role in the management of Alzheimer’s” (Chemistry Central Journal, 2015).
Values after ≈ are worked out from the molar mass of the structure shown. Values joined by “and” are separate entries in the source; they are usually repeats but may differ in a detail not shown here. Identical values can stand only once. Like-named read-outs stand apart in the source and are kept apart here.

Columns and labels:
[1] = ABTS free radicals scavenging assay; conditions: for Percent inhibition (mean ± SEM), ABTS free radicals scavenging: n = 3; for IC50 (ABTS free radicals scavenging): from 250-1000 μg/mL tested concentrations
Description: ABTS (2, 2-azinobis [3-ethylbenzthiazoline]-6-sulfonic acid) free radicals were also used to confirm the antioxidant activity of the synthesized compounds. The activity is based on the capacity of antioxidants to scavenge ABTS^+ radical cation causing a reduction in absorbance at 734 nm. ABTS (7 mM) and […] (2.45 mM) solutions were prepared and mixed. The resultant mixture was maintained at room temperature in dark for 12–16 h to get dark color solution containing ABTS^+ radical cations. At the time of activity, ABTS^+ radical cation solution was diluted with Phosphate buffer (0.01 M) pH 7.4 to adjust an absorbance value of 0.70 at 734 nm. Radical scavenging capability of the compounds was analyzed by mixing 300 μl of compound with 3.0 mL of ABTS solution in cuvette. The reduction in absorbance was measured spectrophotometrically after one minute of mixing the solutions and continued for six min. Ascorbic acid was used as a positive control. The assay was repeated three times and percent inhibition was calculated with formula; %scavengingeffect=Controlabsorbance‐Sampleabsorbance/Controlabsorbance×100
(§1) Radical scavenging ability was calculated by a linear regression analysis among the inhibition percentages against the compounds concentrations via the Excel program.

[2] = DPPH free radicals scavenging assay; conditions: for Percent inhibition (mean ± SEM), DPPH free radicals scavenging: n = 3; for IC50 (DPPH free radicals scavenging): from 250-1000 μg/mL tested concentrations
Description: The compounds’ free radical scavenging ability was evaluated using 1,1-diphenyl, 2-picrylhydrazyl (DPPH) free radicals. Different dilutions (250, 500 and 1000 μg/mL) of compounds (0.1 mL) were added to 0.004 % methanolic solution of DPPH. After 30 min the absorbance was measured at 517 nm using UV spectrophotometer. Ascorbic acid was used as positive control.
Percent scavenging activity was calculated as; A0−A1/A0×100
Where A0 is absorbance of control and A1 is the absorbance of the compound sample. Each experiment was performed in triplicate and inhibition curves were constructed using the GraphPad prism program (GraphPAD, San Diego, California, USA) and median inhibitory concentrations (IC50) values were determined.
as §1

[3] = target: T1, butyrylcholinesterase (BChE) from equine serum (Equus caballus, UniProt P81908); assay: Butyrylcholinesterase inhibition assay (Ellman's spectrophotometric assay); format: biochemical; conditions: for IC50: from 250-1000 μg/mL tested concentrations; for inhibition at 250 µg/mL / inhibition at 500 µg/mL / inhibition at 1000 µg/mL: read-out: Percent AChEI (mean ± SEM) (Table 3, butyrylcholinesterase inhibition)
T1 construct: BChE equine serum Lyophilized (CAS 9001-08-5 Sigma-Aldrich GmbH USA); purchased Sigma-Aldrich CAS 9001-08-5 (catalogue number not given); host or cells: equine serum
Description: (§2) The assay is based on the acetylcholinesterase promoted hydrolysis of acetylthiocholine iodide and butyrylthiocholine iodide by butyrylcholinesterase. The hydrolysis processes give 5-thio-2-nitrobenzoate anion followed by complexation with DTNB (which give yellow color) and is detected by the spectrophotometer.
(§3) Compounds (each separately) were dissolved in phosphate buffer (0.1 M) in concentrations ranging from 250–1000 μg/mL. […] Finally, potassium hydroxide was used to adjust pH. AChE (518 U/mg solid) and BChE (7–16 U/mg) were diluted in freshly prepared buffer pH 8.0 until final concentrations of 0.03 U/mL and 0.01 U/mL were obtained. Solutions of DTNB (0.0002273 M), ATchI and BTchI (0.0005 M) were prepared in distilled water and were kept in Eppendorf caps in the refrigerator.
(§4) For each assay, an enzyme solution of 5 μl was added to the cuvette followed by addition of compound (205 μl), and finally DTNB reagent (5 μl). The solution mixture was maintained at 30 °C for 15 min using water bath with subsequent addition of substrate solution (5 μl). A double beam spectrophotometer was used to measure the absorbance at 412 nm. […] The absorbances along with the reaction time were taken for four minutes at 30 °C and were repeated in triplicate. Finally, the enzyme activity and enzyme inhibition by control and tested samples were calculated from the rate of absorption with change in time (V = ΔAbs /Δt) as follow;
Where Vmax is enzyme activity in the absence of inhibitor drug.
as §1

[4] = target: T2, acetylcholinesterase (AChE) from Electric eel (Electrophorus electricus, UniProt O42275); format: biochemical; conditions: n = 3
T2 construct: AChE Electric eel (type-VI-S, CAS 9000-81-1 Sigma-Aldrich GmbH USA); purchased Sigma-Aldrich type-VI-S (CAS 9000-81-1; catalogue number not given)
Description: as §2, §3, §4
Where Vmax is enzyme activity in the absence of inhibitor drug. […]

T1 sequence (P81908 whole entry): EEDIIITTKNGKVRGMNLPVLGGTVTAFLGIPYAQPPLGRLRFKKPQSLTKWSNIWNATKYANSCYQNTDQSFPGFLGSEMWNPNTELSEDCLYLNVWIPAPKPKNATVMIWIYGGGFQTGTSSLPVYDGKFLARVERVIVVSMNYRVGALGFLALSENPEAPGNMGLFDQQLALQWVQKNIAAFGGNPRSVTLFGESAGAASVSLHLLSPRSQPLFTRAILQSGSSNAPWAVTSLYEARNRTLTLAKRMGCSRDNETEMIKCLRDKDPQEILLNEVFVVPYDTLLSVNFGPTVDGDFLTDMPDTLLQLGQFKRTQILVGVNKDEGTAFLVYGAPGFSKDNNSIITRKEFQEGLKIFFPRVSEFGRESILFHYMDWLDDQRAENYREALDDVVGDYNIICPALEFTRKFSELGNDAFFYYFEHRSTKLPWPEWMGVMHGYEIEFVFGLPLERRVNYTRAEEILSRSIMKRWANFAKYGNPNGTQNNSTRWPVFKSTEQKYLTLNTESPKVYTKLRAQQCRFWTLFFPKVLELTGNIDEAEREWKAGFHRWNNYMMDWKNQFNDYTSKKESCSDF
T2 sequence (O42275 24-633): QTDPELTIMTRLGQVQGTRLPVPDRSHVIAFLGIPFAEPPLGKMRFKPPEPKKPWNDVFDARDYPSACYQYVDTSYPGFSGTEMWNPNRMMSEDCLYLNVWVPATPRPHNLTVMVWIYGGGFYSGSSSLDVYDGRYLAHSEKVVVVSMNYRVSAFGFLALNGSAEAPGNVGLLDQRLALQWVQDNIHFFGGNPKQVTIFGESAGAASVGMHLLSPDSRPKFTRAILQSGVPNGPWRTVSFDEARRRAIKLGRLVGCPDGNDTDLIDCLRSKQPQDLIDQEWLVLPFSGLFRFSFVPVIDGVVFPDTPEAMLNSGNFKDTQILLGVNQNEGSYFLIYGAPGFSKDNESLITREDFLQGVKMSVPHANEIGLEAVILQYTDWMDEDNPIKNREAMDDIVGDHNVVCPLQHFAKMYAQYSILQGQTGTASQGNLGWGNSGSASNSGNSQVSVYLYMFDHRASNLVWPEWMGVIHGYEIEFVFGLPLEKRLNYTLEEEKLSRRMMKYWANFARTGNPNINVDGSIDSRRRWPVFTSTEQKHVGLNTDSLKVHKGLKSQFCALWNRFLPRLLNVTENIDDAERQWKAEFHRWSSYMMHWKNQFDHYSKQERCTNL

O=C1O[C@H]([C@@H](O)CO)C(O)=C1O [Ascorbic acid, reference compound]
Percent inhibition (mean ± SEM), ABTS free radicals scavenging ([1]; conc. 250 μg/mL): 84.66 ± 0.88% | Percent inhibition (mean ± SEM), ABTS free radicals scavenging ([1]; conc. 500 μg/mL): 87.23 ± 0.47% | Percent inhibition (mean ± SEM), ABTS free radicals scavenging ([1]; conc. 1000 μg/mL): 91.62 ± 0.62% | IC50 (ABTS free radicals scavenging) [1]: <0.1 µg/mL | Percent inhibition (mean ± SEM), DPPH free radicals scavenging ([2]; conc. 250 μg/mL): 78.61 ± 0.23% | Percent inhibition (mean ± SEM), DPPH free radicals scavenging ([2]; conc. 500 μg/mL): 81.71 ± 0.54% | Percent inhibition (mean ± SEM), DPPH free radicals scavenging ([2]; conc. 1000 μg/mL): 93.56 ± 0.37% | IC50 (DPPH free radicals scavenging) [2]: 20 µg/mL (≈ 114 µM)

CCOC(=O)C1(C2CC(=O)N(c3ccccc3)C2=O)CCCC1=O (centres unmarked) [Compound 1, Ethyl 2-oxo-1-(2,5-dioxo-1-phenylpyrrolidin-3-yl)cyclopentanecarboxylate]
Percent inhibition (mean ± SEM), ABTS free radicals scavenging ([1]; conc. 250 μg/mL): 65.00 ± 0.57 % | Percent inhibition (mean ± SEM), ABTS free radicals scavenging ([1]; conc. 500 μg/mL): 77.45 ± 0.54 % | Percent inhibition (mean ± SEM), ABTS free radicals scavenging ([1]; conc. 1000 μg/mL): 88.51 ± 0.62 % | IC50 (ABTS free radicals scavenging) [1]: 90 µg/mL (≈ 273 µM) | IC50 [3]: 128 µM | inhibition at 250 µg/mL [3]: 72.5 ± 0.02% | inhibition at 500 µg/mL [3]: 82.5 ± 0.18% | inhibition at 1000 µg/mL [3]: 90.25 ± 0.02% | Percent AChEI (mean ± SEM) ([4]; concentration 250 μg/mL): 93.25 ± 0.25 ^ns % | Percent AChEI (mean ± SEM) ([4]; concentration 500 μg/mL): 94.25 ± 0.05 ^ns % | Percent AChEI (mean ± SEM) ([4]; concentration 1000 μg/mL): 98.00 ± 0.70% and 98.00 ± 0.70^ns % | Percent inhibition (mean ± SEM), DPPH free radicals scavenging ([2]; conc. 250 μg/mL): 35.60 ± 0.75 % | Percent inhibition (mean ± SEM), DPPH free radicals scavenging ([2]; conc. 500 μg/mL): 52.49 ± 0.78 % | Percent inhibition (mean ± SEM), DPPH free radicals scavenging ([2]; conc. 1000 μg/mL): 72.41 ± 0.45 % | IC50 (DPPH free radicals scavenging) [2]: 440 µg/mL (≈ 1340 µM)

CCOC(=O)C1(C2CC(=O)N(Cc3ccccc3)C2=O)CCCC1=O (centres unmarked) [Compound 2, Ethyl 1-(1-benzyl-2,5-dioxopyrrolidin-3-yl)-2-oxocyclopentanecarboxylate]
Percent inhibition (mean ± SEM), ABTS free radicals scavenging ([1]; conc. 250 μg/mL): 59.66 ± 0.66 % | Percent inhibition (mean ± SEM), ABTS free radicals scavenging ([1]; conc. 500 μg/mL): 72.45 ± 0.65 % | Percent inhibition (mean ± SEM), ABTS free radicals scavenging ([1]; conc. 1000 μg/mL): 86.49 ± 0.49 % | IC50 (ABTS free radicals scavenging) [1]: 141 µg/mL (≈ 411 µM) | IC50 [3]: < 0.291 µM | inhibition at 250 µg/mL [3]: 84.25 ± 0.12% | inhibition at 500 µg/mL [3]: 86.75 ± 0.22% | inhibition at 1000 µg/mL [3]: 90 ± 0.1% | Percent AChEI (mean ± SEM) ([4]; concentration 250 μg/mL): 91.00 ± 0.52% and 91.00 ± 0.52 ^ns % | Percent AChEI (mean ± SEM) ([4]; concentration 500 μg/mL): 91.75 ± 0.04% and 91.75 ± 0.04 ^ns % | Percent AChEI (mean ± SEM) ([4]; concentration 1000 μg/mL): 98.75 ± 0.25% and 98.75% and 98.75 ± 0.25 ^ns % | Percent inhibition (mean ± SEM), DPPH free radicals scavenging ([2]; conc. 250 μg/mL): 33.61 ± 0.66 % | Percent inhibition (mean ± SEM), DPPH free radicals scavenging ([2]; conc. 500 μg/mL): 52.48 ± 0.56 % | Percent inhibition (mean ± SEM), DPPH free radicals scavenging ([2]; conc. 1000 μg/mL): 70.32 ± 0.61 % | IC50 (DPPH free radicals scavenging) [2]: 460 µg/mL (≈ 1340 µM)

CCOC(=O)C1(C2CC(=O)N(c3ccccc3)C2=O)CCCCC1=O (centres unmarked) [Compound 3, Ethyl 2-oxo-1-(2,5-dioxo-1-phenylpyrrolidin-3-yl)cyclohexanecarboxylate]
Percent inhibition (mean ± SEM), ABTS free radicals scavenging ([1]; conc. 250 μg/mL): 64.67 ± 0.89 % | Percent inhibition (mean ± SEM), ABTS free radicals scavenging ([1]; conc. 500 μg/mL): 71.25 ± 0.48 % | Percent inhibition (mean ± SEM), ABTS free radicals scavenging ([1]; conc. 1000 μg/mL): 80.41 ± 0.73 % | IC50 (ABTS free radicals scavenging) [1]: 73 µg/mL (≈ 213 µM) | IC50 [3]: 20.4 µM | inhibition at 250 µg/mL [3]: 78.25 ± 0.04% | inhibition at 500 µg/mL [3]: 89 ± 0.3% | inhibition at 1000 µg/mL [3]: 89.25 ± 0.5% | Percent AChEI (mean ± SEM) ([4]; concentration 250 μg/mL): 95.25 ± 0.20 ^ns % | Percent AChEI (mean ± SEM) ([4]; concentration 500 μg/mL): 96.00 ± 0.80 ^ns % | Percent AChEI (mean ± SEM) ([4]; concentration 1000 μg/mL): 98.50 ± 0.09% and 98.50 ± 0.09 ^ns % | Percent inhibition (mean ± SEM), DPPH free radicals scavenging ([2]; conc. 250 μg/mL): 30.59 ± 0.67 % | Percent inhibition (mean ± SEM), DPPH free radicals scavenging ([2]; conc. 500 μg/mL): 54.64 ± 0.70 % | Percent inhibition (mean ± SEM), DPPH free radicals scavenging ([2]; conc. 1000 μg/mL): 60.40 ± 0.49 % | IC50 (DPPH free radicals scavenging) [2]: 535 µg/mL (≈ 1560 µM)

CCOC(=O)C1(C2CC(=O)N(Cc3ccccc3)C2=O)CCCCC1=O (centres unmarked) [Compound 4, 1Ethyl 1-(1-benzyl-2,5-dioxopyrrolidin-3-yl)-2-oxocyclohexanecarboxylate]
Percent inhibition (mean ± SEM), ABTS free radicals scavenging ([1]; conc. 250 μg/mL): 54.00 ± 1.15 % | Percent inhibition (mean ± SEM), ABTS free radicals scavenging ([1]; conc. 500 μg/mL): 67.33 ± 0.77 % | Percent inhibition (mean ± SEM), ABTS free radicals scavenging ([1]; conc. 1000 μg/mL): 73.59 ± 0.43 % | IC50 (ABTS free radicals scavenging) [1]: 173 µg/mL (≈ 484 µM) | IC50 [3]: 5.6 µM | inhibition at 250 µg/mL [3]: 87.5 ± 0.04% | inhibition at 500 µg/mL [3]: 88.5 ± 0.5% | inhibition at 1000 µg/mL [3]: 98.5 ± 0.18% | Percent AChEI (mean ± SEM) ([4]; concentration 250 μg/mL): 93.25 ± 0.15 ^ns % | Percent AChEI (mean ± SEM) ([4]; concentration 500 μg/mL): 96.00 ± 0.55 ^ns % | Percent AChEI (mean ± SEM) ([4]; concentration 1000 μg/mL): 97.25 ± 0.07% and 97.25 ± 0.07 ^ns % | Percent inhibition (mean ± SEM), DPPH free radicals scavenging ([2]; conc. 250 μg/mL): 20.34 ± 0.58 % | Percent inhibition (mean ± SEM), DPPH free radicals scavenging ([2]; conc. 500 μg/mL): 24.75 ± 0.64 % | Percent inhibition (mean ± SEM), DPPH free radicals scavenging ([2]; conc. 1000 μg/mL): 45.80 ± 0.61 % | IC50 (DPPH free radicals scavenging) [2]: >1000 µg/mL

COc1ccc2c3c1O[C@H]1C[C@@H](O)C=C[C@@]31CCN(C)C2 [Galanthamine, reference compound]
inhibition at 250 µg/mL [3]: 71.72 ± 0.51% | inhibition at 500 µg/mL [3]: 85.47 ± 0.59% | inhibition at 1000 µg/mL [3]: 94.5 ± 0.71%
